Source: US20160242450A1, “Functional-gel Compositions and Methods” (priority 2014, published 2016)

Assay: Energy intake and weight loss rodent study, preloads before high fat diet (Experiment 2)
Assay type: in vivo
Conditions: mice on high fat diet, daily preload one hour before diet
Source text: Fifteen adult female feeder mice were preconditioned for 15 days on a […]. PicoLab Rodent diet 20 was supplemented to […] by adding a mixture of fats consisting of (38% butter, 30% shortening, 23% lard, and 8% canola oil). High fat diet was provided ad libitum. After the pre-conditioning period mice were assigned to one of four groups ([…]) to generate similar mean body weights between groups as described below. Mice were given control or test article preloads one hour prior to receiving ad libitum high fat diet on a daily basis, mice received high fat diet at ad libitum over night (rodent active period of the day) and were fasted during day time hours (the rodent dormant period of the day). Body weights were obtained on Day 15 and Day 30 post treatment initiation and data was used to calculate change in body weight from baseline, Day 0. Mean body weights (FIG. 1) and % change in body weight (FIG. 2) data is provided with corresponding SEM. Partially hydrolyzed collagen (GEL group) test article was hydrated in 10× in hot water then allowed to set to firm gel 4-8° C. overnight. Wheat Flour (FLOU group) and Psyllium (PSY group) test articles were hydrated in water. Wheat Flour was cooked via microwave for 2 min at an 800 Watt setting.

CCCCCCCCCCC[C@@H](C[C@@H]1OC(=O)[C@H]1CCCCCC)OC(=O)[C@H](CC(C)C)NC=O [ALLI, Orlistat]
Body weight change over a 30 day treatment period (FIG. 1, FIG. 2): weight loss
